Reference: article PMC3486420, “In Vitro and In Vivo Characterizations of Chiglitazar, a Newly Identified PPAR Pan-Agonist” (PPAR Research, 2012)

What was measured:
PPARγ = target: T1, PPARγ (Homo sapiens, UniProt P37231); test: PPARγ transactivation reporter gene assay in SMMC-7721 cells; format: cell-based; details: SMMC-7721 cells
T1 construct: expressed in transfected cells; host or cells: SMMC-7721 or U2OS
T1 sequence (P37231 1-505): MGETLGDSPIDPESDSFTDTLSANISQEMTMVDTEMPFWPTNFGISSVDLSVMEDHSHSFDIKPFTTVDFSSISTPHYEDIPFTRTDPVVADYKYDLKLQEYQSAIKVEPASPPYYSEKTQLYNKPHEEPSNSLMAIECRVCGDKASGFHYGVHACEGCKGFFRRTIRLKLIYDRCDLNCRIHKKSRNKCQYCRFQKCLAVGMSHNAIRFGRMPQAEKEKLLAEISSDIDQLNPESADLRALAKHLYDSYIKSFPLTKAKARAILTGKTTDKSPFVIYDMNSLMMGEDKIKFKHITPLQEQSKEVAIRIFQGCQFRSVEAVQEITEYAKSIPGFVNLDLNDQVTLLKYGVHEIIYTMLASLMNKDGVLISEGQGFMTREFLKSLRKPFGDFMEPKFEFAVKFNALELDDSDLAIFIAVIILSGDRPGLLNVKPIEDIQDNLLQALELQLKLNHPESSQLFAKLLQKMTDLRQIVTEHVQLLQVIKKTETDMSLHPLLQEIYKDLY
T1 sequence (P19793 1-462 partner): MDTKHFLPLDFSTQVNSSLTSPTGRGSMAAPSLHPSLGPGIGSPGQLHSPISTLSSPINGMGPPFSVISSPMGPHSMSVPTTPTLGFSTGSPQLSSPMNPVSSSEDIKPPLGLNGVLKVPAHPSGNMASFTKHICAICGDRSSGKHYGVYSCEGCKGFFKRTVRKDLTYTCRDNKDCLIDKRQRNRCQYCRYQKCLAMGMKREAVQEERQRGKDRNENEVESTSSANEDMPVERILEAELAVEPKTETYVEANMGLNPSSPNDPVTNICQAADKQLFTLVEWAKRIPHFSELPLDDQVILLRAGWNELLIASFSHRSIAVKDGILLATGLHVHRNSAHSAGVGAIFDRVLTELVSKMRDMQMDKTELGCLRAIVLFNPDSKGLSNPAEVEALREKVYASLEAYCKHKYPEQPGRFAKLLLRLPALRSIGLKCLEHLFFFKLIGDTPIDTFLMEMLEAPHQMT

[1] = Tissue distribution of 3H-chiglitazar in rats; format: in vivo, rat; details: male Wistar rats, single oral dose 12.5 mg kg^−1 3H-labelled, radioactivity AUC0–24
Procedure: ^3H-chiglitazar was synthesized and provided by the Beijing Institute of Atom Energy with specific activity of 15 Ci mmol^−1 and purity >97%. Tissue distribution of ^3H-chiglitazar in rats was evaluated based on the methods described previously. Briefly, male Wistar rats (~220 g in body weight, 12-week old) were randomly divided into 4 groups (5 per group). After fasted overnight, rats were orally administered with single dose of 12.5 mg kg^−1 of ^3H-chiglitazar (radiation dose 31.7 MBq kg^−1). Rats in different groups were sacrificed at 1.5, 4, 8, and 24 h after dosing. Blood (5–9 mL) was collected via cardiac puncture at the time of sacrifice. […] 1 mL of scintillation fluid was added to each well, and radioactivity was measured by a scintillation counter (Perkin Elmer, Waltham, MA, USA).
Figure 5 Influence on heart weight and tissue distribution of chiglitazar in rats. […] 24 h after the last dosing, animals were sacrificed and the heart weight was evaluated. *P < 0.05 compared with control; n = 5 per group. […] Rats were sacrificed at 1.5, 4, 8, and 24 h after treatment (n = 5 per time point), and various tissues/organs as indicated were taken for radioactivity measurement. The accumulated area under curves through 0 to 24 h (AUC0–24) was calculated based on individual tissue distribution measured at each time point. […] Data are expressed as mean ± SE.

O=C(c1ccc(F)cc1)c1ccccc1NC(Cc1ccc(OCCn2c3ccccc3c3ccccc32)cc1)C(=O)O (stereo not shown) [Chi, 2-[(2-(4-fluorobenzoyl)phenyl)amino]-3-[4-(2-carbazolylethoxy)-phenyl]-propionic acid]
EC50 (PPARγ; 24 h treatment, luciferase reporter, hRXR cotransfected, ia: inactive at 10 μM, read-out: PPARγ EC50): 90 ± 20 nM
PPARγ % Max (PPARγ; max response compared with Ros at 1 μM): 105%
Tissue distribution: level in kidney, adipose tissue and heart [1]: low levels
Tissue distribution: level in plasma, liver and pancreas [1]: high levels
